Read-outs that look alike come from different tables or passages of the source.
Experiments:
[1] = test system: mice; test: Conditioned avoidance responding (CAR, active avoidance); type: in vivo; conditions: for ED50: Mus musculus
Experimental: Training: Consists of 20 trials with variable inter-trial intervals (Trained to 80% Avoidance Criteria). After a one-minute acclimation period, the house light and an acoustic 90dB tone (conditioned stimuli) are presented. A response (crossing to dark compartment) within 5 seconds ends the trial and trial is recorded as avoidance response (CAR). […] To avoid shock, animals learn to move from the lighted side of the chamber to the dark side when the cue is presented (avoidance) or moved when the shock is administered (escape).Testing: Vehicle or test compounds are administered S.C. 20 minutes before the test session. (Checking for disruption of cognition and attention) Table 3. Conditioned Avoidance Responding

[2] = test system: Caco-2 cells; test: Membrane permeability (Papp) across Caco-2 cell monolayers; conditions: for RATIO Papp^B-A/ Papp^A-B / Papp AP- to- BL / Papp BL- to- AP: Caco-2 monolayer; for Papp AP- to- BL: apical to basolateral direction; for Papp BL- to- AP: basolateral to apical direction
Experimental: (§1) Caco-2 cells were used to evaluate the membrane permeability of eight embodiments of the present invention. Monolayers were grown to confluence and the integrity checked by transepithelial electrical resistance (TEER) and permeability of Lucifer Yellow. The expression of P-glycoprotein was confirmed by measuring the permeability of digoxin alone and in the presence of verapamil. Permeability measurements were taken for each compound in the apical to basolateral (AP-BL) direction, and the basolateral to apical (BL-AP) direction.

[3] = test system: male C-57 mice; test: PCP disruption of pre-pulse inhibition (PPI) of the acoustic startle response; type: in vivo; conditions: for ED50: Mus musculus; for PCP Disruption of Pre-pulse Inhibition, reversal: mice, PCP 5mg/kg IP, route not given, NEO compounds as oxalate
Experimental: The non-competitive NMDA receptor antagonist phencyclidine (PCP) reduces pre-pulse inhibition (PPI) of the acoustic startle response in rodents. […] For testing of PPI, male C-57 mice were assigned to five dose groups of eight animals per group, and vehicle or test compound were administered orally (PO) or subcutaneously (SC) 20 minutes prior to intraperitoneal (IP) administration of vehicle or PCP (5mg/kg). Ten minutes following PCP administration, the mice were placed into Hamilton-Kinder startle chambers and evaluation of pre-pulse inhibition procedure was performed. Following a five-minute acclimatization period with background white noise (65db), mice were exposed to five different trial types. Trials were presented […] in a quasi-random order, with randomized 5 to 25 second inter-trial intervals. Trials were: stimulus only trial (120db white noise, 50ms stimulus); two different prepulse+pulse trials in which a 20ms 5db; or 10db stimuli above a 65db background preceded the 120db pulse by 120ms; a 10dbprepulse without a 120db pulse; and a no stimulus trial, in which only the background noise was presented. Table 2 PCP Pre-pulse Inhibition

[4] = test system: Caco-2 cells
Experimental: as §1

[5] = sc, read-out: Conditioned Avoidance Responding, Latency ED50
[6] = sc, read-out: Conditioned Avoidance Responding, avoidance ED50
[7] = sc, read-out: PCP Disruption of Pre-pulse Inhibition - SC, 5pp ED50
[8] = sc, read-out: PCP Disruption of Pre-pulse Inhibition - SC, 10pp ED50
[9] = mice, SC 20 minutes before the test session
[10] = mice, SC 20 minutes before the test session, read-out: Conditioned Avoidance Responding, Latency ED50
[11] = read-out: PCP Disruption of Pre-pulse Inhibition, 10pp ED50
[12] = mice, SC 20 minutes before the test session, read-out: Conditioned Avoidance Responding, avoidance ED50

Structure (SMILES)	ED50 [1, 5] [mg/kg]	ED50 [1, 6] [mg/kg]	EFFLUX LIMITED ([2]; Caco-2, Yes/No judgement)	RATIO Papp^B-A/ Papp^A-B [2]	Papp AP- to- BL [2] [cm/s x 10^6]	Papp BL- to- AP [2] [cm/s x 10^6]	ED50 [3, 7] [mg/kg]	ED50 [3, 8] [mg/kg]	EFFLUX LIMITED [4]	PERMEABILITY [4]	Conditioned Avoidance Responding, overall effect [1, 9]	PCP Disruption of Pre-pulse Inhibition, reversal [3]	ED50 [1, 10] [mg/kg]	Conditioned Avoidance Responding, effect on escape or avoidance [1, 9]	Conditioned Avoidance Responding, effect on latency [1, 9]	ED50 [3, 11] [mg/kg]	ED50 [1, 12] [mg/kg]	Conditioned Avoidance Responding, effect on avoidance [1, 9]	ED50 ([3]; read-out: PCP Disruption of Pre-pulse Inhibition, 5pp ED50) [mg/kg]	Papp AP- to- BL ([4]; human) [cm/s x 10^6]
CN1CCN(C2=Nc3cc(Cl)ccc3Nc3ccccc32)CC1 [Clozapine, clozapine, reference compound]	3.03	6.3	No	0.65	15.3±0.7	7.4±1.1	2.87	3	–	–	–	–	–	–	–	–	–	–	–	–
O=C1CCCc2c1ccn2CCCN1CCN(c2cccc(C(F)(F)F)c2)CC1 [NEO-356, 1-{3-[4-(3-Trifluoromethylphenyl)piperazin-1-yl]propyl}-1,5,6,7-tetrahydroindol-4-one]	–	–	–	0.41	21.5±2.9	8.8±0.3	2.31	–	No	High	No effect	No reversal	–	–	–	–	–	–	–	–
O=C1CCCc2c1ccn2CCN1CCN(c2cccc(C(F)(F)F)c2)CC1 [NEO-359, 1-{2-[4-(3-Trifluoromethylphenyl)piperazine-1-yl]ethyl}-1,5,6,7-tetrahydroindol-4-one]	–	–	–	0.32	24.0±3.9	7.6±0.5	3.58	0.79	No	High	–	No reversal	100	No effect on escape or avoidance	Significant decrease in latency	–	–	–	–	–
O=C1CCCc2c1ccn2CCCN1CCN(c2cccc(Cl)c2)CC1 [NEO-363, 1-{3-[4-(3-Chlorophenyl)piperazine-1-yl]propyl}-1,5,6,7-tetrahydroindol-4-one]	–	–	–	0.75	18.0±0.7	13.1±1.1	2.3	2.3	No	High	No effect	–	–	–	–	3.1	–	–	–	–
COc1ccccc1N1CCN(CCCn2ccc3c2CCCC3=O)CC1 [NEO-370, 1-{3-[4-(2-Methoxyphenyl)piperazine-1-yl]propyl}-1,5,6,7-tetrahydroindol-4-one]	–	–	–	0.67	32.1±8.1	20.0±3.4	0.79	0.79	No	High	–	–	3.25	–	Significant increase in latency	0.96	6.2	Significant reduction in avoidance	0.96	–
O=C1CCCc2c1ccn2CCN1CCN(c2cccc(Cl)c2)CC1 [NEO-376, 1-{2-[4-(3-Chloro-phenyl)-piperazin-1-yl]-ethyl}-1,5,6,7-tetrahydro-indol-4-one]	–	–	–	0.43	20.4±1.8	9.4±0.3	0.79	0.79	No	High	–	–	17.5	No effect on escape or avoidance	significant increase in latency	0.79	–	–	–	–
COc1ccccc1N1CCN(CCn2ccc3c2CCCC3=O)CC1 [NEO-377, 1-{2-[4-(2-Methoxyphenyl)-piperazin-1-yl]-ethyl}-1,5,6,7-tetrahydro-indol-4-one]	–	–	–	0.60	26.0±1.8	15.5±2.9	2.31	1.12	No	High	–	–	3	–	Significant increase in latency	2.3	7.57	Significant reduction in avoidance	–	–
O=C1CCCc2c1ccn2CCCN1CCN(c2ncccn2)CC1 [NEO-381, 1-{3-[4-(2-Pyrimidyl)piperazine-1-yl]propyl}-1,5,6,7-tetrahydroindol-4-one]	–	–	–	0.77	32.9±9.6	25.3±0.7	0.79	3.58	No	High	No effect	No reversal	–	–	–	–	–	–	–	–
O=C1CCCc2c1ccn2CCCCN1CCN(c2cccc(C(F)(F)F)c2)CC1 [NEO-392, 1-{4-[4-(3-Trifluoromethylphenyl)piperazin-1-yl]-butyl}-1,5,6,7-tetrahydroindol-4-one]	–	–	–	0.58	27.1±1.1	15.7±1.3	0.23	0.23	No	High	–	–	3.25	–	Significant increase in latency	1.12	4.93	Significant reduction in avoidance	–	–
CC(C)NCC(O)COc1cccc2ccccc12 (stereo not drawn) [Propranolol, reference compound]	–	–	–	–	–	–	–	–	No	High	–	–	–	–	–	–	–	–	–	17.3±2.3
Cc1nc2n(c(=O)c1CCN1CCC(c3noc4cc(F)ccc34)CC1)CCCC2 [Risperidone, risperidone, reference compound]	0.26	0.19	–	–	–	–	0.036	0.036	–	–	–	–	–	–	Significant increase in latency	–	–	Significant reduction in avoidance	–	–

— patent publication EP1412028B1, “TETRAHYDROINDOLONE DERIVATIVES LINKED TO ARYLPIPERAZINES” (Spectrum Pharmaceuticals, Inc., priority 2001, dated 2003)
